The test system of experiment [1] is SH-SY5Y cells. Put plainly: Neuroprotection from Aβ42-induced toxicity, MTT reduction assay. It is filed as cell-based, human. The following applies: Aβ42 2.5 μM 24 h; 1 h pre-incubation + 24 h co-incubation; 18, 19, 20, 23 at 20 µM; 21, 24 at 35 µM. As for the experimental part: Figure 8. Neuroprotective effect of TAC-BF hybrids from Aβ42-induced toxicity on SH-SY5Y cells. Cells were treated with Aβ42 peptide (2.5 μM) for 24 h in the absence or in the presence of the compounds (1 h pre-incubation + 24 h co-incubation). Evaluation of cell viability was performed using the MTT reduction assay. […] (compounds: 18, 19, 20 and 23 – 20 µM; 21, 24 – 35 µM).
(§1) SH-SY5Y human neuroblastoma cell line (ATCC-CRL-2266) is grown in Dulbecco’s modified Eagle’s medium (DMEM), and were obtained from Gibco-Invitrogen (Life Technologies Ltd, UK) with 10% heat inactivated foetal calf serum, containing 50 U/mL penicillin and 50 µg/mL streptomycin, under a humidified atmosphere of 95% air- 5% CO2 at 37 °C. Cells were plated at 0.12 × 10^6 cells/mL for cell viability assay. The tested compounds (18, 19, 20, 21, 23 and 24) were dissolved in DMSO at a concentration of 50 mM and aliquots were stored at −20 °C. We performed a dose-response screening (from 10 µM to 40 µM) in order to choose the highest non-toxic concentration. […]
(§2) Cell viability was determined by the MTT (3–(4,5-dimethylthiazol-2-yl)-2,5-diphenyltetrazolium bromide) reduction test. […] The absorbance was measured at 570 nm[51]. Cell reduction ability was expressed as a percentage of untreated control cells.
Background: Formazan colour is commonly taken as a measure of viable cells.

The subject of experiment [2] is SH-SY5Y cells. Put plainly: Neuroprotection against ascorbate/iron (Asc/Fe) toxicity, MTT reduction assay. It is filed as cell-based, human. The following applies: Asc/Fe 5 mM/500 μM 24 h after 1 h compound; 18, 19, 20, 23 at 20 µM; 21, 24 at 35 µM. The protocol: Figure 9. Neuroprotective effect of TAC-BF conjugates against L-Ascorbic Acid (AscH(-))/Ferrous Sulphate (Fe) toxicity on SH-SY5Y cells. Cells were treated with Asc/Fe (5 mM/500 μM, respectively) for 24 h, after treatment for 1 h in the absence or in the presence of the compounds. Evaluation of cell viability was performed by using MTT reduction assay. […] (compounds: 18, 19, 20 and 23 – 20 µM; 21, 24 – 35 µM).
as §1, §2

In another experiment the target is T1, Aβ1-42 (Homo sapiens, UniProt P05067).
T1 construct: Amyloid β-peptide (1–42), Aβ1-42, was purchased from GeneCust; purchased GeneCust
The experiment is described as follows: TEM imaging of Aβ aggregation inhibition. The following applies: compound 50 μM, 37 °C, 24 h, pH 6.6. The protocol: Nevertheless, since quantitative analysis based on fluorescence of copper(II) containing solutions may result in somehow erroneous conclusions due to some potential emission quenching by this paramagnetic ion, a fluorescence-independent study by transmission electron microscopy (TEM) was also performed for compound 21. […] Overall, TEM confirms the role of the ligand in the inhibition of Aβ aggregation.
Figure 6. TEM images of Aβ aggregation inhibition performed with samples incubated (37 °C) for 24 h. Experimental conditions: [Aβ1–42] = [CuCl2] = 25 μM; [21] = 50 μM; pH = 6.6.
For the study of the β-amyloid (Aβ) aggregation, the ThT fluorescence assay was performed using a Varian Cary Eclipse fluorimeter at the following wavelengths: excitation (446 nm) and emission (485 nm). Amyloid β-peptide (1–42), Aβ1-42, was purchased from GeneCust as a lyophilised powder stored at −20 °C. TEM assays were performed with a Hitachi H8100 transmission electron microscope with a LaB6 filament (200 kV, 10000–20000 × magnification) at MicroLab/IST.
The Transmission Electron Microscopy (TEM) is a high resolution technique used to study biological or inorganic samples at 2–3 nm level, through black and white high-quality images. The compound 21 was selected among those with better anti-Aβ aggregation assay. […]

Molecules are shown by their SMILES.

T1 sequence (P05067 672-713 limits assumed): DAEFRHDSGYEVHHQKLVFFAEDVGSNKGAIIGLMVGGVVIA

For `COc1cccc2cc(C(=O)NCCCNc3c4c(nc5cc(Cl)ccc35)CCCC4)oc12` [Compound 19, N-(3-((6-chloro-1,2,3,4-tetrahydroacridin-9-yl)amino)propyl)-7-methoxybenzofuran-2-carboxamide], in the experiment with SH-SY5Y cells [1], the “Neuroprotective effect from Aβ42-induced toxicity (cell viability)” value is recorded as “prevented that Aβ-induced cell toxicity”. Also, the “Neuroprotective effect against Asc/Fe toxicity (cell viability)” value in the experiment on SH-SY5Y cells [2] is given as “appeared to best achieve cell protection from Asc/Fe-induce oxidative stress”.

On to `O=C(NCCCNc1c2c(nc3ccccc13)CCCC2)c1cc2cccc(O)c2o1` [Compound 21, 7-Hydroxy-N-(3-((1,2,3,4-tetrahydroacridin-9-yl)amino)propyl)benzofuran-2-carboxamide], for which, in the experiment on SH-SY5Y cells [2], the “Neuroprotective effect against Asc/Fe toxicity (cell viability)” value is “lowest capacity for in cell radical scavenging”. In addition, the “TEM morphology of Aβ42 aggregates, self-induced” value at Aβ1-42 ([Aβ1–42] = 25 μM, no copper) is “the aggregates became sparser and more elongated”. For the same compound, on Aβ1-42 ([Aβ1–42] = [CuCl2] = 25 μM), the “TEM morphology of Aβ42 aggregates in presence of copper” value is reported as “formation of homogenous low molecular aggregates”.

`O=C(NCCCNc1c2c(nc3cc(Cl)ccc13)CCCC2)c1cc2cccc(O)c2o1` [Compound 23, N-(3-((6-chloro-1,2,3,4-tetrahydroacridin-9-yl)amino)propyl)-7-hydroxybenzofuran-2-carboxamide]: the “Neuroprotective effect from Aβ42-induced toxicity (cell viability)” value in the experiment with SH-SY5Y cells [1] was “prevented that Aβ-induced cell toxicity”.

The values above are taken from paper PMC7567501 (Journal of Enzyme Inhibition and Medicinal Chemistry, 2019).
